In one series the target is T1, mGlu7 receptor (Homo sapiens, UniProt Q14831).
T1 construct: expressed in transfected cells
The series is described as follows: HTRF cAMP assay: potentiation of forskolin action without agonist (inverse agonist properties). Format: cell-based. The note with it: T-REx 293 cells, 5 μM forskolin, n = 3, read-out: IC50, potentiation of forskolin action (elevating cAMP concentration), inverse agonist properties. As to the method:
A homogeneous time-resolved fluorescence (HTRF) cAMP dynamic 2 (Cisbio, Codolet, France) assay was performed as previously described ([Chruścicka et al., 2015]) with recombinant cell lines. Briefly, HEK 293 T-REx cells stably expressing mGlu7 receptor, were collected and suspended in Hanks-HEPES buffer. The cell suspension was added to compounds solution with 5 μM of forskolin (final concentration). After 5 min incubation in 37°C, 5 μl of cAMP-d2 conjugate in lysis buffer was added and mixed with the 10 μl cell suspension by means of an automated pipetting system (Tecan Evo 200, Tecan, Mannedorf, Switzerland). Next, 5 μl anti-cAMP cryptate conjugate was added and the fluorescence at 620 and 665 nm was read after 1 h (Tecan Infinite M1000). The results are shown as the 665 nm/620 nm ratio multiplied by 10^4. The detected signal was inversely proportional to the concentration of cAMP in the sample. […] Each experiment was performed three times (n = 3), and each data point was in triplicate.
Both compounds dose-dependently potentiated forskolin action, elevating cAMP concentration in the T-REx 293 cells (Figure 2B). […] This effect was not observed for an antagonist of mGluR7 – XAP044.

A short description of series [1]: Pharmacokinetic study, plasma concentration after i.p. injection. Format: in vivo. The settings on record: Albino Swiss, ip, mouse, 10 mg/kg i.p.; for Tmax: 10 mg/kg. The procedure:
The mice were then perfused with 0.1M PBS to remove remaining blood from the body, and the brains were taken out for the analysis. Blood was centrifuged at 2000 rpm for 10 min at 4°C, and the plasma was collected and frozen at -80°C for further analysis.
Plasma and tissue samples from all drug-treated animals were thawed at room temperature prior to use. Standard protocol of sample preparation: 200 μl acetonitrile was added to the eppendorfs with 50 μl of studied plasma samples or tissue homogenate. Samples were mixed for 5 min on a mixer at 25°C and 1400 rpm. Tubes were then centrifuged at 2000 × g for 15 min at 4°C. About 180 μl of each supernatant was transferred into a plate well. Finally, each sample was injected into the column.
In calibration curve – serial dilution method, plasma was spiked with standard at different concentration levels. Acetonitrile was added. Mixed, centrifuged supernatant was taken.
Plasma and tissue samples from all drug-treated animals at selected time points are analyzed using previously developed a non-validated liquid chromatography-tandem mass spectrometry (LC-MS)/MS method.
LC/MS analysis was carried on a Bruker amaZon SL mass spectrometer using positive/ negative ion ESI mode. Chromatographic separation was achieved on a Ascentis Express C18 column, (5 cm × 2.1 mm, […], Supelco Technologies) at room temperature with a thermostatted column oven. A gradient elution of eluents A [acetonitrile (LiChrosolv, Reag. Ph Eur) +0.1% formic acid (Sigma–Aldrich, 98–100%)] and B (water +0.1% formic acid) was used for separation. The flow rate was set at 1 ml/min. The injection volume was 20 μl, and the time of injection was 4 min.
An Ion trap mass spectrometer (Bruker amaZon SL) was equipped with an electrospray source, operating in the positive/negative ion mode. Data were collected and processes using Bruker Quant Analysis software. Quantification of analytes was performed in SIM mode.

The next series addresses T2, Cytochrome P450 1A2 (Homo sapiens, UniProt P05177).
T2 sequence (P05177 1-516): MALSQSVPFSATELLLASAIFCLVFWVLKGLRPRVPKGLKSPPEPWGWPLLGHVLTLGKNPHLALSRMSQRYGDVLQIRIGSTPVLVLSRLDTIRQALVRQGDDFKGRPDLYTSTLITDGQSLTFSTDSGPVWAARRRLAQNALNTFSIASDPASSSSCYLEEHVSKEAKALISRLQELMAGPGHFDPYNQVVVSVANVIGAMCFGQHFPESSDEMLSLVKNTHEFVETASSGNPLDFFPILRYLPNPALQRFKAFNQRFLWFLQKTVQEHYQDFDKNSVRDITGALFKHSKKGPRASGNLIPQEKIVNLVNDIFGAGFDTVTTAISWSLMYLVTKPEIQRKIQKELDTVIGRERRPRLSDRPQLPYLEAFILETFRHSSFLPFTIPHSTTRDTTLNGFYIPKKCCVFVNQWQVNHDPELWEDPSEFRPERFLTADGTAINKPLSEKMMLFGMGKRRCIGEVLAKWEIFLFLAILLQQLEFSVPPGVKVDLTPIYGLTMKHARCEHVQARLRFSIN
The series is described as follows: Cytochrome P450 inhibition, 1A2. It counts as in vitro ADME.

In a further series the target is T3, Cytochrome P450 2B6 (Homo sapiens, UniProt P20813).
T3 sequence (P20813 1-491): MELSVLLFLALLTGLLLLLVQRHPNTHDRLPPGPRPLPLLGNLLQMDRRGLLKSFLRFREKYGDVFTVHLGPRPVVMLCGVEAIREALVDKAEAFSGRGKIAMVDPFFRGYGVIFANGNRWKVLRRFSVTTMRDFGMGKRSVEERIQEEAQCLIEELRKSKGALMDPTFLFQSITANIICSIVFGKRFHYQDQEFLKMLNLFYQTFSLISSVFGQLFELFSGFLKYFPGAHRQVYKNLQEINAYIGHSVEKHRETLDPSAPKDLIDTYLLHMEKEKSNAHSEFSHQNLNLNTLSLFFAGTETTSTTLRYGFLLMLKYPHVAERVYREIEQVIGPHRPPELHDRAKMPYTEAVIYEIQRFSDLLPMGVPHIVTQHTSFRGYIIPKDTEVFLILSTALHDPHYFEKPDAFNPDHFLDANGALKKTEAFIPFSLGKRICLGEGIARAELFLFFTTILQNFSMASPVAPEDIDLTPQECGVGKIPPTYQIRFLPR
Nature of the series: Cytochrome P450 inhibition, 2B6. It counts as in vitro ADME.

A further series deals with Cytochrome P450 2C9 (Homo sapiens, UniProt P11712). The series is described as follows: Cytochrome P450 inhibition, 2C9. Format: in vitro ADME.
Sequence of Cytochrome P450 2C9 (P11712 whole entry): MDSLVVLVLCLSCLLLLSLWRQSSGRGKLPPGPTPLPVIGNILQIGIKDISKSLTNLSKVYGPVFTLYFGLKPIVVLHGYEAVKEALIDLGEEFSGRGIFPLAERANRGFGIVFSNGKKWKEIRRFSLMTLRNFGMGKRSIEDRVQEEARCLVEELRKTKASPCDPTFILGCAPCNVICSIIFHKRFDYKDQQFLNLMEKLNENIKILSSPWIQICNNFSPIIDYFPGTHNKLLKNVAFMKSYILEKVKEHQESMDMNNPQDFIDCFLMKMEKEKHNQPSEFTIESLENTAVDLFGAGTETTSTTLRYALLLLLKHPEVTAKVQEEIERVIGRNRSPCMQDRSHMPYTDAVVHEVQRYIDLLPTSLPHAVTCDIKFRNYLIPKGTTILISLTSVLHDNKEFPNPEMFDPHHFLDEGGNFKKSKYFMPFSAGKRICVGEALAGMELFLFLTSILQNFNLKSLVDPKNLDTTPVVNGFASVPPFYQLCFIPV
A further series concerns the target Cytochrome P450 2C19 (Homo sapiens, UniProt P33261). Nature of the series: Cytochrome P450 inhibition, 2C19. Format: in vitro ADME.
The subject of series [2] is MK-801-induced social interaction deficits. Nature of the series: Social interaction test (MK-801-induced deficits). It counts as in vivo, Albino Swiss mice. The settings on record: 30 min before MK-801 (0.3 mg/kg), mice. As to the method:
The method was adapted from [de Moura Linck et al., 2008] and [Woźniak et al., 2016b]. After the 2-day habituation trial (10 min/day) a pair of mice was placed in the open field for 5 min. The social interactions between two mice were determined based on the total time spent participating in social behavior such as genital investigation, sniffing, chasing, and fighting each other. The total number of social episodes was also measured. The test was video-recorded and viewed by a trained observer.

Sequence of Cytochrome P450 2C19 (P33261 whole entry): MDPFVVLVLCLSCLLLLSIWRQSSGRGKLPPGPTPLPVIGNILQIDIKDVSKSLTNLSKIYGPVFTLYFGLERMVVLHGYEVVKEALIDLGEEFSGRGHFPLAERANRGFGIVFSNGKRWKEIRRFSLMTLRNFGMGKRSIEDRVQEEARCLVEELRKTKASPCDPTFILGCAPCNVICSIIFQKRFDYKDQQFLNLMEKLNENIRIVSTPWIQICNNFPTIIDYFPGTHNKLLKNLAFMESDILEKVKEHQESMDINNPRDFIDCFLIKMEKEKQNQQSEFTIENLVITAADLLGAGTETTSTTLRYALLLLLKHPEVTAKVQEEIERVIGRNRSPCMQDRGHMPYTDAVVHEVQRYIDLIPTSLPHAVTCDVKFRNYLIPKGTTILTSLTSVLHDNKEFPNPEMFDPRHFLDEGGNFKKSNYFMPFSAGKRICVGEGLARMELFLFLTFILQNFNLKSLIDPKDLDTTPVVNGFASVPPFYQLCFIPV
T1 sequence (Q14831 35-915): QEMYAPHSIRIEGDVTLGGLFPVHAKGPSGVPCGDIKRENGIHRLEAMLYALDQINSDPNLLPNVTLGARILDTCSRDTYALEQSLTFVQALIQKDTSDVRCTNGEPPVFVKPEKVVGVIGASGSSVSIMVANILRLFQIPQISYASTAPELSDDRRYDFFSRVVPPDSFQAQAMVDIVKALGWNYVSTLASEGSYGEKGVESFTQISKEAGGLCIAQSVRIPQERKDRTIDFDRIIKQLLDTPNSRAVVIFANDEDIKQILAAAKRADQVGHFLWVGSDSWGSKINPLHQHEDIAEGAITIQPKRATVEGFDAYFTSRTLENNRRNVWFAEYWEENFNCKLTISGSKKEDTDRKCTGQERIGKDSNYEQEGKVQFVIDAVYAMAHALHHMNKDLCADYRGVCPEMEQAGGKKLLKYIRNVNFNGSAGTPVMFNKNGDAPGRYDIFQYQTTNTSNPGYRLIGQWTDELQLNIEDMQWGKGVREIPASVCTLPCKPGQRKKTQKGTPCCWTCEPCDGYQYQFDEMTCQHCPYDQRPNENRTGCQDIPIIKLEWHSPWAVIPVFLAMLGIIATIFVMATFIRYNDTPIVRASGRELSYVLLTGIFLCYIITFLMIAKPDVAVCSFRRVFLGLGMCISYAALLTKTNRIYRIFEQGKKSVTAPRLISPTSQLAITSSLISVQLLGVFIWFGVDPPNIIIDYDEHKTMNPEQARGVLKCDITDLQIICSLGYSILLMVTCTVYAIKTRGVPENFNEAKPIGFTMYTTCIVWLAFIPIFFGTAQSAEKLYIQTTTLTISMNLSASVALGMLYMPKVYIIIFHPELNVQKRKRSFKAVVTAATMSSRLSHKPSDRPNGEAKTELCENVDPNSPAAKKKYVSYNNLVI

For `CCc1nc2c(o1)CC(c1ccc(C)cc1C)CC2=O` (stereo not drawn) [ADX71743, 6-(2,4-Dimethylphenyl)-2-ethyl-6,7-dihydro-4(5H)-benzoxazolone], the IC50 was 0.22 µM on mGlu7 receptor; > 10 µM against Cytochrome P450 1A2; > 10 µM on Cytochrome P450 2B6; > 10 µM against Cytochrome P450 2C9; 3.3 to 10 µM against Cytochrome P450 2C19. In addition, in series [1], the AUC was 1.9 µM·h. In addition, the Cmax in series [1] amounted to 3.73 µM. In addition, the half-life in series [1] was 54 min. Further, the Tmax in series [1] stood at 15 min. Also, the “Effect on MK-801-induced reduction of duration of social interaction” value in series [2] (5 mg/kg i.p.) and in series [2] (15 mg/kg i.p.) was “reversed the effect of MK-801” each time. Also, the “Effect on MK-801-induced reduction of number of social episodes” value in series [2] (5 mg/kg i.p.) and in series [2] (15 mg/kg i.p.) was “reversed the effect of MK-801” throughout.

For the molecule `COc1ccc(-c2cc3onc(-c4ccncc4)c3c(=O)n2C)cc1` [MMPIP, 6-(4-Methoxyphenyl)-5-methyl-3-(4-pyridinyl)-isoxazolo(4,5-c)pyridin-4(5H)-one], the IC50 at mGlu7 receptor was found to be 0.34 µM. Also, in series [1], the AUC came out at 13.5 µM·h, the concentration peaked (Cmax) at 9.85 µM, the half-life is 69.6 min and the time to peak (Tmax) stood at 30 min. The IC50 at Cytochrome P450 1A2 was > 10 µM. In addition, the IC50 against Cytochrome P450 2B6 was > 10 µM. Moreover, the IC50 at Cytochrome P450 2C9 was > 10 µM. Moreover, at Cytochrome P450 2C19, the IC50 was < 1.1 µM. In series [2] (5, 10, and 20 mg/kg i.p.), the “Effect on MK-801-induced reduction of number of social episodes” value is “no effect” and the “Effect on MK-801-induced reduction of time of interaction” value is “no effect”.
